For six compounds, Activity, IC50 and MIC results are on record in ChEMBL document CHEMBL3217587, “The discovery of N-1 substituted 2-aminobenzimidazoles as zinc-dependent S. aureus biofilm inhibitors” (Medchemcomm, 2012).

≈ marks a conversion by molar mass, not a printed value. Calls of active or inactive are those of the source. No cut-off for these calls is given here. Where only a bound is given, the exact number is not on record here.

Data set [1] deals with Staphylococcus aureus. Briefly: Antibiofilm activity against methicillin-resistant Staphylococcus aureus ATCC 43300 assessed as biofilm dispersal at 20 uM after 24 hrs by crystal violet staining-based microscopy. It is filed as functional, organism-based.
The subject of data set [2] is Staphylococcus aureus. Put plainly: Antimicrobial activity against methicillin-resistant Staphylococcus aureus ATCC BAA-44 assessed as inhibition of biofilm formation after 24 hrs by crystal violet staining-based microscopy. In kind it is functional, organism-based. The note with it: ATCC BAA-44, 24 h.
Data set [3] deals with Staphylococcus aureus. Put plainly: Antimicrobial activity against methicillin-resistant Staphylococcus aureus ATCC BAA-44 after 16 hrs by broth microdilution method. It is filed as functional. Conditions: ATCC BAA-44, 16 h.
Data set [4] deals with Staphylococcus aureus. Briefly: Antimicrobial activity against methicillin-resistant Staphylococcus aureus ATCC BAA-1556 after 16 hrs by broth microdilution method. Conditions: ATCC BAA-1556, 16 h. It is filed as functional.
In data set [5] the test system is Staphylococcus aureus. Briefly: Antimicrobial activity against methicillin-resistant Staphylococcus aureus ATCC BAA-1753 after 16 hrs by broth microdilution method. In kind it is functional. The note with it: ATCC BAA-1753, 16 h.
The test system of data set [6] is Staphylococcus aureus. Briefly: Antimicrobial activity against methicillin-susceptible Staphylococcus aureus ATCC 29213 after 16 hrs by broth microdilution method. It is filed as functional. The note with it: ATCC 29213, 16 h.
The test system of data set [7] is Staphylococcus aureus. Briefly: Antimicrobial activity against methicillin-resistant Staphylococcus aureus ATCC BAA-811 after 16 hrs by broth microdilution method. In kind it is functional. Conditions: ATCC BAA-811, 16 h.
Data set [8] deals with Staphylococcus aureus. Put plainly: Antimicrobial activity against methicillin-resistant Staphylococcus aureus ATCC 43300 assessed as inhibition of biofilm formation after 24 hrs by crystal violet staining-based microscopy. In kind it is functional, organism-based. Conditions: ATCC 43300, 24 h.
Data set [9] concerns Staphylococcus aureus. Briefly: Antimicrobial activity against methicillin-resistant Staphylococcus aureus ATCC BAA-1685 after 16 hrs by broth microdilution method. In kind it is functional. The note with it: ATCC BAA-1685, 16 h.
In data set [10] the test system is Pseudomonas aeruginosa. Put plainly: Antimicrobial activity against Pseudomonas aeruginosa PA14 after 16 hrs by broth microdilution method. In kind it is functional. The note with it: PA14, 16 h.
Data set [11] relates to Staphylococcus aureus. Briefly: Antimicrobial activity against methicillin-resistant Staphylococcus aureus ATCC 33591 after 16 hrs by broth microdilution method. In kind it is functional. Conditions: ATCC 33591, 16 h.
Data set [12] concerns Staphylococcus aureus. Briefly: Antimicrobial activity against methicillin-resistant Staphylococcus aureus ATCC 43300 after 16 hrs by broth microdilution method. The note with it: ATCC 43300, 16 h. It is filed as functional.
Data set [13] relates to Staphylococcus aureus. Briefly: Antimicrobial activity against methicillin-resistant Staphylococcus aureus ATCC 700789 after 16 hrs by broth microdilution method. In kind it is functional. Conditions: ATCC 700789, 16 h.
Data set [14] has as its system Staphylococcus aureus. Put plainly: Toxicity in methicillin-resistant Staphylococcus aureus ATCC BAA-44 assessed as inhibition of planktonic cell growth at IC50 after 2 to 24 hrs by spectrophotometry. In kind it is organism-based.
Data set [15] relates to Acinetobacter baumannii. Put plainly: Antimicrobial activity against multidrug-resistant Acinetobacter baumannii ATCC BAA-1605 after 16 hrs by broth microdilution method. The note with it: ATCC BAA-1605, 16 h. It is filed as functional.
Data set [16] concerns Staphylococcus aureus. Briefly: Toxicity in methicillin-resistant Staphylococcus aureus ATCC 43300 assessed as inhibition of planktonic cell growth at IC50 after 2 to 24 hrs by spectrophotometry. In kind it is organism-based.

Consider `CCCCCc1ccc(C(=O)Nc2ccc3c(c2)nc(N)n3CCc2ccccc2OC)cc1.Cl`, for which the result in data set [1] was inactive. The IC50 in [2] came to 7.3 µM; in [8] it was 5.7 µM. Further, the MIC in data set [3] amounted to 16 µg/mL; in data set [4] it was 16 µg/mL; in data set [5] it was 16 µg/mL; in [6], 16 µg/mL; in [7] it was 8 µg/mL; in data set [9], 16 µg/mL. For the same compound, the MIC in [10] was greater than 64 µg/mL; in [11], 16 µg/mL; in [12], 16 µg/mL; in data set [13], 16 µg/mL; in [15] it was greater than 64 µg/mL. Moreover, the Activity result in data set [14] was “Toxic”; in data set [16] it was “Non-toxic”.
In the case of `CCCCCc1ccc(C(=O)Nc2ccc3c(c2)nc(N)n3C)cc1.Cl`, the outcome in data set [1] was inactive. The half-inhibitory concentration (IC50) in data set [2] and in data set [8] was greater than 20 µM each time. The MIC in [3] was 32 µg/mL; in data set [4] it was 32 µg/mL; in data set [5], 8 µg/mL; in data set [6], 16 µg/mL; in [7], 64 µg/mL; in [9], 16 µg/mL. Further, the minimum inhibitory concentration (MIC) in data set [10] was found to be 64 µg/mL; in [11], 32 µg/mL; in [12], 16 µg/mL; in [13], 64 µg/mL; in data set [15], 64 µg/mL.
As for `CCCCCc1ccc(C(=O)Nc2ccc3c(c2)nc(N)n3CCc2c[nH]c3ccccc23)cc1.Cl`, the result in data set [1] was inactive. Further, the IC50 in data set [2] was found to be 4.4 µM; in data set [8], 3.7 µM. Further, the MIC in data set [3] amounted to 16 µg/mL; in [4], 16 µg/mL; in [5] it was 16 µg/mL; in data set [6], 16 µg/mL; in data set [7], 8 µg/mL; in data set [9] it was 16 µg/mL. Besides, the minimum inhibitory concentration (MIC) in data set [10] was greater than 64 µg/mL; in data set [11] it was 8 µg/mL; in data set [12], 16 µg/mL; in [13], 16 µg/mL; in data set [15], greater than 64 µg/mL. Moreover, the Activity entry in data set [14] and in data set [16] was “Toxic” in each case.
`CCCCCc1ccc(C(=O)Nc2ccc3c(c2)nc(N)n3CCc2ccccn2)cc1.Cl`: in [1], the result was inactive. Further, the results for the IC50 in [2] and in data set [8] were 8.9 µM and 7.2 µM, respectively. The minimal inhibitory concentration (MIC) in [3] is 32 µg/mL; in [4], 32 µg/mL; in data set [5], 32 µg/mL; in data set [6] it was 32 µg/mL; in [7], 32 µg/mL; in [9], 64 µg/mL. The MIC in [10] is greater than 64 µg/mL; in [11], 32 µg/mL; in data set [12], 64 µg/mL; in [13], 32 µg/mL; in data set [15], greater than 64 µg/mL. Also, the Activity result in data set [14] and in [16] was “Non-toxic” each time.
In the case of `CCCCCc1ccc(C(=O)Nc2ccc3[nH]c(N)nc3c2)cc1`, the values for the IC50 in data set [2] and in data set [8] were greater than 20 µM and 13.9 µM, respectively. For the same compound, the minimum inhibitory concentration (MIC) in data set [3] came to 8 µg/mL (≈ 24.8 µM); in data set [4], 8 µg/mL (≈ 24.8 µM); in data set [5] it was 8 µg/mL (≈ 24.8 µM); in data set [6] it was 16 µg/mL (≈ 49.6 µM); in data set [7] it was 8 µg/mL (≈ 24.8 µM); in data set [9], 16 µg/mL (≈ 49.6 µM). For the same compound, the MIC came to 16 µg/mL (≈ 49.6 µM) in data set [10]; 16 µg/mL (≈ 49.6 µM) in data set [11]; 16 µg/mL (≈ 49.6 µM) in data set [12]; 8 µg/mL (≈ 24.8 µM) in [13]; 16 µg/mL (≈ 49.6 µM) in [15]. Also, the Activity entry in data set [16] was “Toxic”.
As to `CCCCCc1ccc(C(=O)Nc2ccc3c(c2)nc(N)n3-c2ccc(CCCCC)cc2)cc1.Cl`, the outcome in [1] was inactive. In addition, the IC50 in [2] and in data set [8] was greater than 20 µM in each case. The MIC in [3] is greater than 64 µg/mL; in data set [4], greater than 64 µg/mL; in data set [5] it was 64 µg/mL; in data set [6], 64 µg/mL; in [7] it was greater than 64 µg/mL; in data set [9], 64 µg/mL. For the same compound, the MIC in [10], in data set [11], in data set [12], in data set [13] and in data set [15] was greater than 64 µg/mL in each case.
